The source made the active and inactive calls.
Assays:
cells [1] = assay type: functional, cell-based
cells [2] = assay type: functional, cell-based; remark: listed apart in the source
Protein skinhead-1 = target: T1, Protein skinhead-1 (Caenorhabditis elegans, UniProt P34707); assay type: functional
T1 sequence (P34707 whole entry): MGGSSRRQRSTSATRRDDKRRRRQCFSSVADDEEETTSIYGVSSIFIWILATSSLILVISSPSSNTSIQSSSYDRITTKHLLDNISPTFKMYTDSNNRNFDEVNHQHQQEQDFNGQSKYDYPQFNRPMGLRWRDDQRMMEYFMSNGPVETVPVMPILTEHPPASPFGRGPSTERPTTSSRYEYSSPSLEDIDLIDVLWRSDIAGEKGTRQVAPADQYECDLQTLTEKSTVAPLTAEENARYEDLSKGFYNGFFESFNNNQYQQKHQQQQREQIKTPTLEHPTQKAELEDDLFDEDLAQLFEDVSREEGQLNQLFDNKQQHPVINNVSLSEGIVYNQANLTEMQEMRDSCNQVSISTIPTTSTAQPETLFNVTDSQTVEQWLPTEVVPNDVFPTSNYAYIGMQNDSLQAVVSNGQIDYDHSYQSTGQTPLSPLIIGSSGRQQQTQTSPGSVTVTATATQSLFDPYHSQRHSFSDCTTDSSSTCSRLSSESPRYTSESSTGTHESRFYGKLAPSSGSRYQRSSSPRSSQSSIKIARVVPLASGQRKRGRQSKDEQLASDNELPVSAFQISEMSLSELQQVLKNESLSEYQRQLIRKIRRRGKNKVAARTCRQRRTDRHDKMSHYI

Aminopeptidase N = target: T2, Aminopeptidase N (Plasmodium falciparum FcB1/Columbia, UniProt O96935); assay: P. falciparum M1AAP inhibitors, biochemical, fluorogenic H-Leu-NHMec substrate, 1536-well (AID 1445); design: species or system Plasmodium falciparum 3D7, 3D7
T2 sequence (O96935 whole entry): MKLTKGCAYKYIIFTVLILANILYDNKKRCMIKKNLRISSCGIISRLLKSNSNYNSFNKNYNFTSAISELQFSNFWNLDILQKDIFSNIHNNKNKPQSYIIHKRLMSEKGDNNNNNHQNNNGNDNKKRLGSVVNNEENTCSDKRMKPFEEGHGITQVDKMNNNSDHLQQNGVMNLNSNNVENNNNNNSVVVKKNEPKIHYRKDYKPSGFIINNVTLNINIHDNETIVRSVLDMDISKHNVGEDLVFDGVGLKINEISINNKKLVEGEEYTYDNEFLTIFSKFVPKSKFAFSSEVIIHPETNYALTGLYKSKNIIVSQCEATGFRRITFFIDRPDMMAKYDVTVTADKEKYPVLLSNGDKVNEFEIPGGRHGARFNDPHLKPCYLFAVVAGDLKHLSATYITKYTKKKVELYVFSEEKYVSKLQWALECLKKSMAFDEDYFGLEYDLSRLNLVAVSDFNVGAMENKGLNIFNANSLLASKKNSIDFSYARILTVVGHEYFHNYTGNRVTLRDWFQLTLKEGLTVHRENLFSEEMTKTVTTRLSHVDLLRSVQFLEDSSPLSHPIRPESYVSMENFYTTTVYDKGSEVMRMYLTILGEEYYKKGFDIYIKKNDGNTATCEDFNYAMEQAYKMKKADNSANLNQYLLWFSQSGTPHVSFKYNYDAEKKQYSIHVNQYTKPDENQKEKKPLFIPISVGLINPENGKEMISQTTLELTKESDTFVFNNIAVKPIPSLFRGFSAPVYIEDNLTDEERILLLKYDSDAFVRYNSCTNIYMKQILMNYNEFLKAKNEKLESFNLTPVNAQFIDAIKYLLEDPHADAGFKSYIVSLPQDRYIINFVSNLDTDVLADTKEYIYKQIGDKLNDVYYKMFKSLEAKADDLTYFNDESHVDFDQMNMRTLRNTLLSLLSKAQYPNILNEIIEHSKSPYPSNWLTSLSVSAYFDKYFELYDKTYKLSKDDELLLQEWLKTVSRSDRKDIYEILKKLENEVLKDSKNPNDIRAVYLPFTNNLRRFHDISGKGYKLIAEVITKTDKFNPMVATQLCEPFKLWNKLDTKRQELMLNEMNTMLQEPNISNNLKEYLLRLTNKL

[3] = target: Glyceraldehyde-3-phosphate dehydrogenase (Homo sapiens, UniProt P04406)
[4] = inhibitors of clade B AD8 Env fusion, dose response, cell-based, cherry-pick (AID 652062); assay type: functional;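 further: luciferase signal from cell-cell fusion driven by HIV-1 clade B AD8 Env; potency is for inhibitors of fusion seen as a drop in luminescence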
[5] = ZM109 Env clade C HIV-1 fusion inhibitors, dose response, HeLa effector, CEM target cells, luciferase, cherry-pick (AID 652058); assay type: functional, cell-based
[6] = inhibitors of HIV Env-driven cell fusion, dose response, cherry-pick (AID 652057); assay type: functional, cell-based
[7] = Luminescence Cell-Based Dose Confirmation HTS to Identify Inhibitors of Platelet Dense Granule Release. [Related pubchem assays: 1663 (Primary HTS), 1678 (Summary of Project)]; assay type: functional
[8] = target: Luciferin 4-monooxygenase (Photinus pyralis, UniProt P08659); assay: firefly luciferase enzyme inhibitors, dose response, biochemical, luminescence (AID 1891)
[9] = P. falciparum Dd2 growth inhibitors, dose response, SYBR Green, cherry-picked samples (AID 1159567); assay type: functional, cell-based
[10] = HEK293 cell cytotoxicity, dose response, cytotoxicity control, plate reader, cherry-picked samples (AID 743446); assay type: functional, cell-based
[11] = MC4R antagonists, dose response, counter-screen for LGR2 antagonist project, cell-based, plate reader, cherry pick (AID 743444); assay type: functional;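 further: transfected HEK 293 cells stimulated with alpha-MSH peptide; potency of inhibitors of the alpha-MSH evoked signal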
[12] = HepG2 cell cytotoxicity, dose response, cytotoxicity control, plate reader, cherry-pick, antagonist series (AID 743416); assay type: functional, cell-based
[13] = LGR2 antagonists, dose response, cell-based, HEK293, CRE-luciferase reporter, cherry pick, set 2 (AID 743343); assay type: functional;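 further: transfected cells were stimulated with diluted bursicon conditioned medium after compound addition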
[14] = A549 cell cytotoxicity, dose response, cytotoxicity control, plate reader, cherry-pick, antagonist series (AID 743412); assay type: functional, cell-based
[15] = target: T3, Alkaline phosphatase, tissue-nonspecific isozyme (Homo sapiens, UniProt P05186); assay: human TNAP enzyme inhibitors, SAR follow-up, biochemical, luminescent, dose response (AID 1056)
T3 sequence (P05186 whole entry): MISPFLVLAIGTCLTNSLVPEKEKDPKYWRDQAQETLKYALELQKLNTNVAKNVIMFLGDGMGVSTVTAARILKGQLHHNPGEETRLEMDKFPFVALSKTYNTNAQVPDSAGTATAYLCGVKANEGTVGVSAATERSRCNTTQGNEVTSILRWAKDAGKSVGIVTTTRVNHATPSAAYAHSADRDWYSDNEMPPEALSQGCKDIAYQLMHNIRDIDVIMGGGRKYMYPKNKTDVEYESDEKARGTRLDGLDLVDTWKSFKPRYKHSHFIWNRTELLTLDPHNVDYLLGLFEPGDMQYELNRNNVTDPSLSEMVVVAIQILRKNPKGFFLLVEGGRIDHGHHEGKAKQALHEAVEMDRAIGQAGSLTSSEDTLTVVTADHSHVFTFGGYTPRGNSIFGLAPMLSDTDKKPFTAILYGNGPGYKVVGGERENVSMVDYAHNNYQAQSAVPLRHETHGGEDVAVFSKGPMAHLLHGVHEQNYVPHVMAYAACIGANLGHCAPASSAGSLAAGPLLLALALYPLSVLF

[16] = target: T4, Polyadenylate-binding protein 1 (Homo sapiens, UniProt P11940); assay: PABP1 MLLE–PAM2 binding inhibitor potency, dose response, biochemical, fluorescence polarization, FITC-PAM2 peptide (AID 602259); assay type: functional; details: read-out: IC50_Mean
[17] = target: T4, Polyadenylate-binding protein 1; assay: PABP1 MLLE–PAM2 interaction inhibitors, dose response, miRNA deadenylation inhibitor project, biochemical, fluorescence polarization, Cy5-PAM2 peptide, secondary (AID 602260); assay type: functional; details: read-out: IC50_Mean

T4 sequence (P11940 whole entry): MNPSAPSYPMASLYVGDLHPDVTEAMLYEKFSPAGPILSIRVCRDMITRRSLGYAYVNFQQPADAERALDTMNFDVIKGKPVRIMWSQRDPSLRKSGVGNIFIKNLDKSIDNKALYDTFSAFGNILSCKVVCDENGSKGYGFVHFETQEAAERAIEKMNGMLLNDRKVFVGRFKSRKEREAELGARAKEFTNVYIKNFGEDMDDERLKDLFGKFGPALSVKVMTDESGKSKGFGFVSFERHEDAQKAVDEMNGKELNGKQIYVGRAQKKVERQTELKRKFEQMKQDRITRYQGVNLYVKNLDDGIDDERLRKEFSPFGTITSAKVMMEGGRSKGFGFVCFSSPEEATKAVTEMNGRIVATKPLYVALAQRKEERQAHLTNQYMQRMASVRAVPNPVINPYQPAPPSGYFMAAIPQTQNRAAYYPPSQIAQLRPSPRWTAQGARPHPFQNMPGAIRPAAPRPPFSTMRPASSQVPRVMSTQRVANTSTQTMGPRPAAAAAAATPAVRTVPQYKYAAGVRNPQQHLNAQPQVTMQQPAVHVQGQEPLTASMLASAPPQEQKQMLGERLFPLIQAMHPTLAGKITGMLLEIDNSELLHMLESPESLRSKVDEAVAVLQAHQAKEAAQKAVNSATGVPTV
Chain of Glyceraldehyde-3-phosphate dehydrogenase (P04406 whole entry, the tested form may be a part): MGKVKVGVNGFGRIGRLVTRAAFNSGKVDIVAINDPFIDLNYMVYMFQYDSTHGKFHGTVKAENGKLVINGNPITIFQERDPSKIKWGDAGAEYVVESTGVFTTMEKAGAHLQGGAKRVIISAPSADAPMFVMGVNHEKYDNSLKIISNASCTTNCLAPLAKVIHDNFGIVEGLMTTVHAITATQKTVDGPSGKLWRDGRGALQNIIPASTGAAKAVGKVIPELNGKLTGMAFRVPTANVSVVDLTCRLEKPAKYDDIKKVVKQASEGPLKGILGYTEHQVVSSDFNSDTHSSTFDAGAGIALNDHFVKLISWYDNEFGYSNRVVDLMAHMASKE
Chain of Luciferin 4-monooxygenase (P08659 whole entry): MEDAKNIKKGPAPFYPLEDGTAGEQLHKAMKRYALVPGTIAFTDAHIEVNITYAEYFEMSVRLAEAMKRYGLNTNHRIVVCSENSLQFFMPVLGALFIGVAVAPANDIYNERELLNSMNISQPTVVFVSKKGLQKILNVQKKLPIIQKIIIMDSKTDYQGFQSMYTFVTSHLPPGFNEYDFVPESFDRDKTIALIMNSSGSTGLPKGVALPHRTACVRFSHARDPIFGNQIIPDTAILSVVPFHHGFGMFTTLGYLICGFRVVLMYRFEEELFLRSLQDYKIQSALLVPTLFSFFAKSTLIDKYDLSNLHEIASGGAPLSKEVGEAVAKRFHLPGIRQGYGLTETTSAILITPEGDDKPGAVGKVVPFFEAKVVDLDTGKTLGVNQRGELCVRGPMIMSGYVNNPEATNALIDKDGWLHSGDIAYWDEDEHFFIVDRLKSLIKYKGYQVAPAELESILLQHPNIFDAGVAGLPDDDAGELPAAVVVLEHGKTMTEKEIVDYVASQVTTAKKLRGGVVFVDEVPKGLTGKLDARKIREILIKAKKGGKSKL

Cc1onc(-c2ccccc2)c1NC(=O)N(Cc1ccccc1)C(C)C
EC50 (cells [1]): > 350 µM (not active) | EC50 (cells [2]): > 350 µM (not active)

COc1ccccc1CNC(=O)C1CCN(C(=O)N(C)C)CC1
IC50 (Protein skinhead-1): > 100 µM (inactive)

Cc1cc(N2C(=O)c3ccc(C(=O)NCc4ccccc4)cc3C2=O)no1
IC50 (Aminopeptidase N): 18.6 µM (active)

COc1cccc(N2CCN(C3=C(Cl)C(=O)N(c4ccc(C(F)(F)F)cc4)C3=O)CC2)c1
IC50 [3]: > 50 µM (inconclusive)

Cc1nc2ccccc2nc1OCc1ccccc1
IC50 (Protein skinhead-1): 18.2 µM (active)

Cc1ccc(-c2c(C)sc3ncn(CC(=O)N4CCOCC4)c(=O)c23)cc1C
IC50 (Aminopeptidase N): 12.4 µM (active)

O=C(C[C@@H]1C=C[C@H](NC(=O)c2ccccc2)[C@H](CO)O1)NCc1ccc(Oc2ccccc2)cc1
AC50 [4]: 35 µM (active) | AC50 [5]: 24.1 µM (active) | AC50 [6]: 24.7 µM (active)

Cn1ncc(Br)c1NC(=O)CSc1ccc(Cl)cc1
EC50 (cells [1]): > 350 µM (not active) | EC50 (cells [2]): 181 µM (active)

O=C(/C=C/Nc1ccc(F)cc1F)c1cccs1
EC50 [7]: 4.23 µM (active) | EC50 [8]: 1.09 µM (active) | IC50 (Protein skinhead-1): 73.4 µM (inactive)

Clc1ccc(-n2nnc(-c3nccs3)n2)cc1Cl
IC50 (Protein skinhead-1): > 100 µM (inactive)

Cc1ccc(-n2nnnc2SCC(=O)NC(C(=O)O)(c2ccccc2)c2ccccc2)cc1C
IC50 (Aminopeptidase N): 29.2 µM (active)

CN(C)CC(=O)N1[C@H](CO)[C@H](c2ccc(-c3cccc(C(=O)N(C)C)c3)cc2)[C@@H]1C#N
AC50 [9]: 7.56 µM (active)

O=C(Nc1cc2ccccc2oc1=O)c1ccccc1
AC50 [10]: 37.2 µM (active) | AC50 [11]: 3.08 µM (active) | AC50 [12]: 41 µM (active) | AC50 [13]: 1.69 µM (active) | AC50 [14]: 31.5 µM (active)

Cc1ccc(S(=O)(=O)N2CCN(c3ccccn3)CC2)cc1
EC50 (cells [1]): > 350 µM (not active) | EC50 (cells [2]): > 350 µM (not active)

COc1ccc(CNC(=O)N(C)C[C@H]2OCc3ccccc3-c3c(n(C)c4ccccc34)C(=O)N([C@@H](C)CO)C[C@@H]2C)cc1
AC50 [4]: < 0.26 µM (active) | AC50 [5]: < 0.26 µM (active) | AC50 [6]: < 0.26 µM (active)

CS(=O)(=O)c1sc2nc(-c3cccs3)cc(-c3ccccc3)c2c1N
IC50 (Aminopeptidase N): 81.1 µM (active)

O=C(Cn1ccnc1)c1ccc(O)c(O)c1
IC50 [15]: > 100 µM (inactive)

CCOC(=O)c1cnc2ccc(Cl)cc2c1NCCN(C)C
IC50 [16]: > 66 µM (inactive) | IC50 [17]: > 66 µM (inactive)
